Assay results from paper PMC8043124 (ACS Infectious Diseases, 2021).

Legend:
[1] = system: P. aeruginosa (strain PA14); experiment: Checkerboard assay of potentiator-antibiotic pairs; assay type: cell-based, Pseudomonas aeruginosa; settings: for Antibiotic MIC with WD40 relative to clinical breakpoint: PA14, with WD40, breakpoints for Gram-positive species (EUCAST)
[2] = system: P. aeruginosa clinical isolates (BWH006, BWH012, BWH013, BWH021, BWH027); experiment: Checkerboard assay of potentiator-antibiotic pairs in clinical isolates; assay type: cell-based, Pseudomonas aeruginosa; settings: for Antibiotic MIC with WD40 relative to clinical breakpoint: 10 μM WD40, MIC95, breakpoints for Gram-positive species (EUCAST); for MIC of antibiotic alone: range over isolates, Figure 6 names MIC95

Structure (SMILES): CC(=O)O[C@H]1C[C@@]2(C)[C@@H](C[C@@H](O)[C@H]3[C@@]4(C)CC[C@@H](O)[C@@H](C)[C@@H]4CC[C@@]32C)/C1=C(\CCC=C(C)C)C(=O)O [fusidic acid]
- Antibiotic MIC with WD40 relative to clinical breakpoint [1]: clinical breakpoints were met
- Antibiotic MIC with WD40 relative to clinical breakpoint [2]: did not meet their clinical breakpoints
- MIC of antibiotic alone [2]: 512 to 1024 µg/mL

Structure (SMILES): CO[C@H]1/C=C/O[C@@]2(C)Oc3c(C)c(O)c4c(O)c(c(/C=N/N5CCN(C)CC5)c(O)c4c3C2=O)NC(=O)/C(C)=C\C=C\[C@H](C)[C@H](O)[C@@H](C)[C@@H](O)[C@@H](C)[C@H](OC(C)=O)[C@@H]1C [rifampin]
- MIC of antibiotic alone ([1]; PA14): 512 µg/mL
- Antibiotic MIC with WD40 relative to clinical breakpoint [1]: to the clinical breakpoint
- Antibiotic MIC with WD40 relative to clinical breakpoint [2]: below its clinical breakpoint
- MIC of antibiotic alone [2]: 8 to 16 µg/mL
